# Test results reported in patent US10960037B2, “Method of treating neurological conditions with extract of Nerium species or Thevetia species” (PHOENIX BIOTECHNOLOGY, INC., priority 2010, dated 2021).
# Test system: 5×-ARE-luciferase transcriptional reporter in primary corticostriatal neuronal co-cultures
# Test: Nrf2 activation, 5×ARE-luciferase reporter assay
# Format: cell-based, mouse
# Conditions: 7 h and 24 h treatment
# Protocol: Activation of the 5×-ARE luciferase reporter became stronger with an apparent left-shift in concentration-response for extended treatment over 24 h compared to 7 h. Fold-expression changes are expressed relative to the DMSO-carrier only condition (“0”) normalized to a co-transfected, constitutive Renilla luciferase control and set to a value of 1.
# Primary corticostriatal neuronal co-cultures were prepared from E18 Sprague-Dawley rat or C57Bl/6 mouse embryos of either gender. For luciferase reporter assays, the Cignal Antioxidant Response Reporter kit (Qiagen) was used. The 5×ARE luciferase reporter mixture at 40:1 luciferase:Renilla plasmid was transfected into cortical and striatal neurons separately using an Amaxa electroporation device (Lonza). After electroporation, neurons were pooled and immediately plated into 96-well plates containing mature glial cultures. After culturing for 96 h, neuroprotective compositions were added at the indicated concentrations for 7 or 24 h prior to harvesting using Dual-Glo Luciferase Assay System protocol and reagents (Promega). Dual-wavelength luminescence was detected using a SpectraMax L microplate reader (Molecular Devices). Luciferase values were normalized to the internal Renilla control and fold-expression over the DMSO-only treatment control was calculated. At least 3 independent experiments were done using 4-6 biological replicates.
smiles,measurement,value
CC1(C)CC[C@]2(C(=O)O)CC[C@]3(C)[C@H](C(=O)C=C4[C@@]5(C)C=C(C#N)C(=O)C(C)(C)[C@@H]5CC[C@]43C)[C@@H]2C1 [bardoxolone],induction of 5×-ARE-luciferase reporter,Concentration- and time-dependent induction
